Consider 5 compounds from ChEMBL document CHEMBL1134523, “Isomerization of (Z,Z) to (E,E)1-bromo-2,5-bis-(3-hydroxycarbonyl-4-hydroxy)styrylbenzene in strong base: probes for amyloid plaques in the brain” (J Med Chem, 2001).

As a reminder, the Ki is a dissociation constant, usually derived from enzyme kinetics or from competition with a known ligand. Low readings indicate tighter binding, high ones weaker binding.

For this assay, the target named is Amyloid-beta precursor protein (Homo sapiens, UniProt P05067). Put plainly: Inhibitory activity against binding of [125I]IMSB to amyloid beta in brain. The class given is tissue-based.
Amyloid-beta precursor protein, sequence (P05067 whole entry): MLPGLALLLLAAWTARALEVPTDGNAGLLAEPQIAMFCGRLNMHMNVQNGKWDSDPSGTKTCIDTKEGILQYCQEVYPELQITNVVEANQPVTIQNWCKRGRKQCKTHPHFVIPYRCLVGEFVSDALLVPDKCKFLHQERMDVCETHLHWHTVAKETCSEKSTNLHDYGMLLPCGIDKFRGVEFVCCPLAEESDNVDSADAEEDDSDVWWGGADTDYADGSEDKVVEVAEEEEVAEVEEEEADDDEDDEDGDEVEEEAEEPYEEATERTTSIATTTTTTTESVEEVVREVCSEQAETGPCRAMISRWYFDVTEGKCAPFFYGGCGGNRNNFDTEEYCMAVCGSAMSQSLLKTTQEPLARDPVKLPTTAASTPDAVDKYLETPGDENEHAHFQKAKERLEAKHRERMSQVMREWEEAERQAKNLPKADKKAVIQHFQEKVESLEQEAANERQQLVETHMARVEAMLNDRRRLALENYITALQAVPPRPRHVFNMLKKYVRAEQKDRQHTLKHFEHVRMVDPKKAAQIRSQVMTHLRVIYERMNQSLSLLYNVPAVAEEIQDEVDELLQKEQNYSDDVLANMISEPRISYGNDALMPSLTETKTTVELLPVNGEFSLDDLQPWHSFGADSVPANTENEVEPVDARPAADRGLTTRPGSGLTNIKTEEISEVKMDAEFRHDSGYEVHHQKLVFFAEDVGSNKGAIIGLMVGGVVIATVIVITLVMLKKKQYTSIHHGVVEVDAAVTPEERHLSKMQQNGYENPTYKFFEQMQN
`O=C(O)c1cc(/C=C\c2ccc(/C=C/c3ccc(O)c(C(=O)O)c3)cc2Br)ccc1O` had a Ki of 0.19 nM.
To `O=C(O)c1cc(/C=C\c2ccc(/C=C/c3ccc(O)c(C(=O)O)c3)c(Br)c2)ccc1O` belongs 0.27 nM.
For `O=C(O)c1cc(/C=C/c2ccc(/C=C/c3ccc(O)c(C(=O)O)c3)c(Br)c2)ccc1O` the value was 0.11 nM.
In turn, `O=C(O)c1cc(/C=C\c2ccc(/C=C\c3ccc(O)c(C(=O)O)c3)c(Br)c2)ccc1O` had a Ki of 0.13 nM.
For `O=C(O)c1ccccc1O` [SALICYLIC ACID] the value was greater than 1800 nM.
